Values of other authors as cited in US12465592B2, “Structured encapsulated silicon-containing particles” (SISAF LIMITED, priority 2019, dated 2025).

- aqueous solubility: < 1 µg/mL
SMILES: Clc1ccc(COC(Cn2ccnc2)c2ccc(Cl)cc2Cl)c(Cl)c1 (stereo not shown) [Miconazole]
